Paper PMC11012064, “Synthesis of Antiprotozoal 2-(4-Alkyloxyphenyl)-Imidazolines and Imidazoles and Their Evaluation on Leishmania mexicana and Trypanosoma cruzi” (International Journal of Molecular Sciences, 2024)

Key:
[1] = tested on: L. mexicana promastigotes; experiment: Metabolic inhibition of Leishmania mexicana promastigotes, fluorometric analysis with resazurin; assay type: cell-based; conditions: for SI (CC50/IC50) L. mexicana: CC50 macrophages J774 / IC50 L. mexicana promastigotes; for IC50: Leishmania mexicana, 48 h, read-out: L. mexicana Promastigotes IC50, promastigotes, 24 h + 24 h resazurin, 27 °C, confidence interval (Probit) in parentheses, triplicate; for activity on L. mexicana (in words): promastigotes, in vitro
Protocol: A promastigote culture of L. mexicana was harvested in the stationary phase after 7 days of growth in culture. To each well of a sterile 96-well microplate, 5 × 10^5 promastigotes and the compound to be assessed (or the reference drug) were added to a final volume of 100 μL in RPMI culture medium supplemented with 10% SFB and 1% ampicillin/streptomycin. Each compound was examined at different concentrations, obtained by serial two-fold dilutions starting from 50 μg/mL. […] Promastigotes with 0.5% DMSO (at the vehicle concentration of the greatest dilution of the compound) served as the positive viability control and amphotericin B at a final concentration of 5 μg/mL served as the negative viability control. Each condition was assayed in triplicate.
After 24 h of incubation, 10 μL of 0.01% resazurin was added to each of the wells and incubation continued for another 24 h under the same conditions. The plate was read via a fluorometer (Spectramax M3, Molecular Devices, LLC, San Jose, CA, USA) at 544 nm excitation and 590 nm emission. Each treated well was compared to the positive viability control, and metabolic inhibition was expressed as a percentage. The IC50 value was determined with the Probit statistical tool version 4.1 [31, 32, 33].
Resazurin is a blue, permeable, and non-fluorescent compound. Upon entering cells, it is reduced to resorufin due to the reducing environment of the cytosol in living cells. Resorufin is red and highly fluorescent. The number of living cells is proportional to the fluorescence intensity of resorufin [31].

[2] = Cytotoxic effect on macrophages, resazurin; assay type: cell-based, murine; conditions: mouse, J774A.1 macrophages; J774A.1 murine macrophages, 20 h + 4 h resazurin; confidence interval (Probit) in parentheses; triplicate; read-out: Macrophages J774 CC50
Protocol: (§1) The microplate was incubated at 37 °C with 5% CO2 and humidity for 24 h to allow for the formation of a cell monolayer with a confluence of 80%. Subsequently, a concentration–response evaluation was carried out. Briefly, one of the compounds at the corresponding concentration was placed in each well with macrophages. […] As the negative cytotoxicity control, cells were exposed to 1% DMSO. The microplate was incubated at 37 °C with 5% CO2 and humidity for 20 h. Afterwards, 10 μL of 0.01% resazurin was added and the microplate was incubated for 4 h. As mentioned above, the microplate was read via a fluorometer at 544 nm excitation and 590 nm emission. Each treated well was compared to the negative cytotoxicity control and the data were expressed as a percentage of metabolic inhibition. The Probit statistical tool was used to calculate the CC50.

[3] = tested on: T. cruzi INC-5 epimastigotes; experiment: Metabolic inhibition of Trypanosoma cruzi INC-5 epimastigotes, colorimetric analysis with MTT; assay type: cell-based; conditions: for IC50: Trypanosoma cruzi, 24 h, 24 h + 20 h MTT, 27 °C, confidence interval (Probit) in parentheses, triplicate; for IC50 / activity on T. cruzi (in words): epimastigotes; for activity on T. cruzi (in words): in vitro; for SI (CC50/IC50) T. cruzi: CC50 macrophages J774 / IC50 T. cruzi INC-5 epimastigotes
Protocol: Epimastigotes of T. cruzi INC-5 were harvested after 7 days of growth in culture. […] The microplate was incubated in the dark at 27 °C for 24 h. Epimastigotes with 0.5% DMSO served as the positive viability control and the reference drugs nifurtimox ([…], Bayer, Germany) and benznidazole (Rochagan, Roche, Brazil) served as the negative viability control. Each condition was assayed in triplicate. Upon completion of the incubation time, 10 μL of MTT solution at 5 mg/mL was added to each well, and incubation continued in the dark at 27 °C for 20 h. Then, 100 μL of a solution containing 10% SDS and 0.01 M HCl was added to stop the reaction. […] The plates were read on a spectrophotometer (Spectramax Plus, Molecular Devices) at an absorbance of 570 nm. The result found in each well with a given concentration of the respective compound was compared to the positive viability control and the metabolic inhibition was expressed as a percentage. The IC50 was determined using the Probit statistical tool. MTT is a yellow, water-soluble compound. In living cells, […] is captured and reduced to its insoluble form (formazan, which is purple) by mitochondrial succinate dehydrogenase. The quantity of living cells is proportional to the amount of formazan produced.

J774A.1 macrophages = experiment: Cytotoxic effect on macrophages, resazurin; assay type: cell-based, murine; conditions: murine macrophage cell line
Protocol: as §1

Row | Structure (SMILES) | SI (CC50/IC50) L. mexicana [1] | IC50 [1] [µg/mL] | activity on L. mexicana (in words) [1] | CC50 [2] [µg/mL] | IC50 [3] [µg/mL] | activity on T. cruzi (in words) [3] | SI (CC50/IC50) T. cruzi [3] | melting point [°C] | cytotoxic effect on macrophages (in words) (J774A.1 macrophages)
1 | CCCCCCCCCOc1ccc(-c2ncc[nH]2)cc1 [compound 36, 8-Nonyloxyphenyl-2-imidazole] | 28.53 | 1.09 | active | 31.3 | < 1 | active |  |  | 
2 | C[C@@H]1[C@H](O)[C@@H](C)/C=C/C=C/C=C/C=C/C=C/C=C/C=C/[C@H](O[C@@H]2O[C@H](C)[C@@H](O)[C@H](N)[C@@H]2O)C[C@@H]2O[C@](O)(C[C@@H](O)C[C@@H](O)[C@H](O)CC[C@@H](O)C[C@@H](O)CC(=O)O[C@H]1C)C[C@H](O)[C@H]2C(=O)O [AmB, amphotericin, reference compound] | 253.26 | 0.19 |  | 48.1 |  |  |  |  | 
3 | CCCCCCCCCOc1ccc(C2=NCCN2)cc1 [compound 31] | 92.56 | < 1 |  | 50.6 | 21 |  | 2.40 | 103 to 105 | 
4 | CCCCCCOc1ccc(-c2ncc[nH]2)cc1 [compound 33, 8-Hexyloxyphenyl-2-imidazole] | 25.21 | 3.4 | active | 85.7 | < 10 | active |  | 133 to 135 | 
5 | CCOc1ccc(C2=NCCN2)cc1 [compound 23, 2-(4-Ethoxyphenyl)-4,5-dihydro-1H-imidazole] | >13.12 | 7.62 |  | > 100 | > 50 | inactive |  | 180 to 182 | least cytotoxic effect
6 | CC(C)Oc1ccc(C2=NCCN2)cc1 [compound 25, 2-(4-iso-propyloxyphenyl)-4,5-dihydro-1H-imidazole] |  |  |  |  |  |  |  | 151 to 153 | 
7 | CCCCCCCCOc1ccc(C2=NCCN2)cc1 [compound 30] | 48.11 |  | active | 9.72 | < 1 | active |  | 102 to 104 | 
8 | CCCCCOc1ccc(C2=NCCN2)cc1 [compound 27, 8-Penthyloxyphenil-2-imidazoline] | 88.28 | < 1 |  | 71.3 | 37.5 |  | 1.90 | 129 to 131 | 
9 | CC1CS(=O)(=O)CCN1/N=C/c1ccc([N+](=O)[O-])o1 (stereo not drawn) [Nfx, nifurtimox, reference compound] |  |  |  | 57.8 | 2.5 |  | 23.10 |  | 
10 | O=c1[nH]c2ccccc2nc1CBr [compound 38, 3-(Bromomethyl)quinoxalin-2(1H)-one] |  | > 50 | no effect was detected |  | > 50 | no effect was detected |  | 224 to 226 | 
11 | COc1ccc(C2=NCCN2)cc1 [compound 22, 2-(4-Methoxyphenyl)-4,5-dihydro-1H-imidazole] | >6.23 | 16 |  | > 100 | > 50 | inactive |  |  | least cytotoxic effect
12 | CCCCCCOc1ccc([C@@H](O)[C@@H](O)c2ccc(OCCCCCC)cc2)cc1 [compound 37, (1R,2S)-1,2-bis(4-hexyloxyphenyl)ethane-1,2-diol] |  | > 50 | inactivity |  | > 50 | inactivity |  | 122 to 123 | 
13 | CCCOc1ccc(C2=NCCN2)cc1 [compound 24, 2-(4-Propyloxyphenyl)-4,5-dihydro-1H-imidazole] |  |  |  |  |  |  |  | 121 to 122 | 
14 | CCCCCCCOc1ccc(C2=NCCN2)cc1 [compound 29, 8-Hepthyloxyphenyl-2-imidazoline] | 106.21 |  |  | 21.5 |  |  |  | 100 to 102 | 
15 | CCCCCCOc1ccc(C2=NCCN2)cc1 [compound 28, 8-Hexyloxypheny-2-imidazoline] | 166.31 |  |  | 29.2 | 25.1 |  | 1.16 | 133 to 135 | 
16 | CCCCCCCCOc1ccc(-c2ncc[nH]2)cc1 [compound 35, 8-Octyloxyphenyl-2-imidazole] | 14.92 | 2.69 | active | 40.2 |  | active |  | 117 to 119 | 
17 | CCCCOc1ccc(C2=NCCN2)cc1 [compound 26, 2-(4-Butyloxyphenyl)-4,5-dihydro-1H-imidazole] | >37.98 | 2.63 |  | > 100 | 48.7 |  |  | 122 to 123 | 
18 | O=C(Cn1ccnc1[N+](=O)[O-])NCc1ccccc1 [Bnz, benznidazole, reference compound] |  |  |  | 91.6 | 11 |  | 8.31 |  | 
